In patent EP2030621A1, “Novel substituted pyrimidines as cysteine protease inhibitors” (GLAXO GROUP LIMITED, priority 2007, dated 2009) one finds IC50 data, which are given here for nine compounds.

For one experiment, the target named is Falcipain-3 (Plasmodium falciparum, UniProt Q8IIL0). In words: Falcipain-3 enzymatic assay (fluorogenic peptide substrate, quenched endpoint read). Type of experiment: biochemical. The method, then:
(§1) 1 Determination of Falcipain-2, Falcipain-3, Vivapain-2, Cathepsin K Cathepsin S, Cathepsin L, and Cathepsin B proteolytic catalytic activity
(§2) Assays for Falcipain-2, Faicipain-3, and Vivapain-2 are carried out with parasitic recombinant enzymes. Cathepsins K, S, L, and B are carried out with human recombinant enzymes. Standard assay conditions for the determination of kinetic constants used a fluorogenic peptide substrate, typically H-D-VLR-AFC (Falcipain-2, Falcipain-3, Vivapain-2), Z-FR-AFC (Cathepsin K, L, B), or KQKLR-AMC (Cathepsin S) and are determined in 100 mM sodium acetate, pH 5.5, containing 10 mM DTT and 0.5 mM CHAPS (Falcipain-2, Falcipain-3, Vivapain-2), and 100 mM sodium acetate, pH 5.5, containing 5 mM L-cysteine, 1mM CHAPS and 5mM EDTA (Cathepsin K, L, B), or 50mM MES, pH 6.5, containing 0.5mM CHAPS, 10mM L-CYS, 5mM EDTA (Cathepsin S). Stock substrate solutions are prepared at 20 mM in DMSO. The activity assays contained 30 uM substrate (Falcipain-2, Falcipain-3, Vivapain-2), 20 uM substrate (Cathepsin K), 25uM substrate (Cathepsin B), 5uM substrate (Cathepsin L), and 30uM substrate (Cathepsin S). All assays contained 1% DMSO. […] All assays are conducted at ambient temperature as end point assays being quenched after 60 minutes with the exception of Cathepsin S at 90 minutes, with 16.6 uM E-64 in 1% DMSO. Product formation (AFC or AMC) is determined from fluorescence (excitation at 405nm; emission at 530nm, AFC, or excitation at 360 nm; emission at 460 nm, AMC) monitored with a LJL Aquest (Molecular Devices) fluorescent plate reader. In the case of kinetic reads (used in mechanism of action studies), the reaction is not quenched but is read in the plate reader every 3 minutes for approximately 90 minutes. In addition, the mechanism of action studies for Falcipain-2 utilize Z-LR-AMC as the substrate. Product formation is determined from the fluorescence of AMC, measured with a LJL Acquest (Molecular Devices) fluorescent plate reader (excitation at 360nm; emission at 460nm).
(§3) Potential inhibitors are evaluated using the quenched read (endpoint) method. Assays are carried out in the presence of variable concentrations of test compound. Reactions are initiated by addition of enzyme and substrate to wells containing inhibitor stamped in 100% DMSO. For endpoint assays, the reaction is quenched with the addition of E64. Dose response data is fit to an IC50 curve with preset fitting tools according to equation 1: y = a + (b-a)/(1 + (10^x /10^c ())^d ) [formula] where y is the response at a particular inhibitor concentration x, a is the minimum response value, b is the maximum response value, c is the IC50, and d is the slope of the IC50 curve. […]. For a more direct measurement of the KI and the binding mechanism, we performed mechanism of action studies that included a titration of substrate and inhibitor with a kinetic read. […]

Experiment [1] has as its system Plasmodium falciparum parasite. The experiment in a line: Whole cell assay: whole cell activity against the parasite. Format: cell-based. Particulars: Plasmodium falciparum.
Another experiment deals with Falcipain-2 (Plasmodium falciparum, UniProt Q8I6U4). In words: Falcipain-2 enzymatic assay (fluorogenic peptide substrate, quenched endpoint read). Format: biochemical. The method, then: as §1, §2, §3
Where [2] appears, read: parasitic recombinant enzyme, 30 uM H-D-VLR-AFC, pH 5.5, quenched after 60 minutes, read-out: Falcipain-2 (IC50).
Setting [3] is: parasitic recombinant enzyme, 30 uM H-D-VLR-AFC, pH 5.5, quenched after 60 minutes, read-out: Falcipain-3 (IC50).

Where a name gives a salt, the structure may show the parent alone. Read-outs that look alike come from different tables or passages of the source. Some results are limits rather than exact numbers.

Falcipain-3, sequence (Q8IIL0 243-492): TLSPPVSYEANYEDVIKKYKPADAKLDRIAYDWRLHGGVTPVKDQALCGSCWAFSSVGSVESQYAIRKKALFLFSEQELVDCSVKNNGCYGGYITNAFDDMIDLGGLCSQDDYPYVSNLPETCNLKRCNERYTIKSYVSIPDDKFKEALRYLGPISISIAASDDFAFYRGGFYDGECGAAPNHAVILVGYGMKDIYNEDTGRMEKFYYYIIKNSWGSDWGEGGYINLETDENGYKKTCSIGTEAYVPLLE
Falcipain-2, sequence (Q8I6U4 244-484): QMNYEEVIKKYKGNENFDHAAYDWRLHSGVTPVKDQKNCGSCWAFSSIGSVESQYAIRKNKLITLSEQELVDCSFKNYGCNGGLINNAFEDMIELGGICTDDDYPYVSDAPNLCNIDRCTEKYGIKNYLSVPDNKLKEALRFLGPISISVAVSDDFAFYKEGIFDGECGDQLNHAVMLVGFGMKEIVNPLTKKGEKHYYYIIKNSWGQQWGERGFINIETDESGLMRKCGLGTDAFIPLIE

Turning to `CN1CCN(Cc2ccc(C(=O)NN(c3nc(C#N)ncc3Br)C3CCCC3)cc2)CC1` [Example 1, N'-(5-bromo-2-cyano-4-pyrimidinyl)-N'-cyclopentyl-4-[(4-methyl-1-piperazinyl)methyl]benzohydrazide trifluoroacetate], the 50% inhibitory concentration (IC50) (on Falcipain-3; in experiment [1]) was 15 to 150 nM each time.

Consider `CN1CCC(CN2CCN(Cc3cccc(C(=O)NN(c4nc(C#N)ncc4Br)C4CCCC4)c3)CC2)CC1` [Example 15, N'-(5-bromo-2-cyano-4-pyrimidinyl)-N'-cyclopentyl-3-({4-[(1-methyl-4-piperidinyl)methyl]-1-piperazinyl}methyl)benzohydrazide trifluoroacetate], for which the results for the IC50 (at Falcipain-3; in experiment [1]) were 15 to 150 nM and 2.5 to 15 nM, respectively.

In the case of `CN1CCN(C2CCN(Cc3ccc(C(=O)NN(c4nc(C#N)ncc4Br)C4CCOCC4)cc3)CC2)CC1` [Example 29, N'-(5-Bromo-2-cyano-4-pyrimidinyl)-4-{[4-(4-methyl-1-piperazinyl)-1-piperidinyl]methyl}-N'-(tetrahydro-2H-pyran-4-yl)benzohydrazide trifluoroacetate], the 50% inhibitory concentration (IC50) (at Falcipain-3; in experiment [1]) was 15 to 150 nM in each case.

As for `CN1CCN(C(=O)C2CCN(Cc3ccc(C(=O)NN(c4nc(C#N)ncc4Cl)C4CCOCC4)cc3)CC2)CC1` [Example 36, N'-(5-Chloro-2-cyano-4-pyrimidinyl)-4-({4-[(4-methyl-1-piperazinyl)carbonyl]-1-piperidinyl}methyl)-N'-(tetrahydro-2H-pyran-4-yl)henzohydrazide trifluoroacetate], the IC50 is 1 to 2.5 nM at Falcipain-2 and 15 to 150 nM in experiment [1].

Take `CC(=O)N1CCC(N(NC(=O)c2ccc(CN3CCN(C)CC3)cc2)c2nc(C#N)ncc2Br)CC1` [Example 37, N'-(1-acetyl-4-piperidinyl)-N'-(5-bromo-2-cyano-4-pyrimidinyl)-4-[(4-methyl-1-piperazinyl)methyl]benzohydrazide trifluoroacetate]: the IC50 is less than 1 nM at Falcipain-2 (setting [2]), 15 to 150 nM at Falcipain-3 (setting [3]) and 15 to 150 nM in experiment [1].

`CC(=O)N1CCC(N(NC(=O)c2ccc(CN3CCC(N4CCN(C)CC4)CC3)cc2)c2nc(C#N)ncc2Br)CC1` [Example 38, N'-(1-acetyl-4-piperidinyl)-N'-(5-bromo-2-cyano-4-pyrimidinyl)-4-{[4-(4-methyl-1-piperazinyl)-1-piperidinyl]methyl}benzohydrazide trifluoroacetate]: the results for the IC50 (against Falcipain-3; in experiment [1]) were 15 to 150 nM and 150 to 250 nM, respectively.

In the case of `CN1CCN(Cc2ccc(C(=O)NN(c3nc(C#N)ncc3Br)C3CCOCC3)cc2)CC1` [Example 42, N'-(5-bromo-2-cyano-4-pyrimidinyl)-4-[(4-methyl-1-piperazinyl)methyl]-N'-(tetrahydro-2H-pyran-4-yl)benzohydrazide trifluoroacetate], the half-inhibitory concentration (IC50) on Falcipain-2 is 1 to 2.5 nM; in experiment [1], 15 to 150 nM.

In the case of `CN1CCN(Cc2ccc(C(=O)NN(c3nc(C#N)ncc3Cl)C3CCCC3)cc2)CC1` [Example 50, N'-(5-chloro-2-cyano-4-pyrimidinyl)-N'-cyclopentyl-4-[(4-methyl-1-piperazinyl)methyl]benzohydrazide trifluoroacetate], the half-inhibitory concentration (IC50) against Falcipain-2 was in the range of 1 to 2.5 nM; in experiment [1], 15 to 150 nM.

`CC(C)CCN(C)Cc1ccc(C(=O)NN(c2nc(C#N)ncc2Cl)C2CCCC2)cc1` [Example 63, N'-(5-chloro-2-cyano-4-pyrimidinyl)-N'-cyclopentyl-4-{[methyl(3-methylbutyl)amino]methyl}benzohydrazide trifluoroacetate]: the IC50 on Falcipain-2 (setting [2]) is less than 1 nM; at Falcipain-3 (setting [3]) it was 2.5 to 15 nM; in experiment [1], 2.5 to 15 nM.

The term IC50 denotes the concentration that inhibits the measured activity by half.
